Source: PubChem BioAssay (NCI)
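Cells were grown in 96-well plates and exposed to each compound for 48 hours at five concentrations; endpoints were interpolated linearly between bracketing concentrations, or set to the highest concentration if not reached. Here, GI50 denotes the concentration required for 50% inhibition of growth. Definition used: TGI = concentration required for complete inhibition of growth.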

Columns and labels:
Test in all cases: NCI-60 cell line screen, 48 h
HL-60(TB) leukemia = tested on: HL-60(TB) leukemia
HCC-2998 colon = tested on: HCC-2998 colon
SNB-75 CNS = tested on: SNB-75 CNS
NCI-H460 lung = tested on: NCI-H460 lung
SF-268 CNS = tested on: SF-268 CNS
SW-620 colon = tested on: SW-620 colon
TK-10 renal = tested on: TK-10 renal
SK-MEL-28 melanoma = tested on: SK-MEL-28 melanoma
SF-539 CNS = tested on: SF-539 CNS
LOX IMVI melanoma = tested on: LOX IMVI melanoma

Structure (SMILES) | GI50 (HL-60(TB) leukemia) | TGI (HL-60(TB) leukemia) | GI50 (HCC-2998 colon) | TGI (HCC-2998 colon) | GI50 (SNB-75 CNS) | TGI (SNB-75 CNS) | GI50 (NCI-H460 lung) | TGI (NCI-H460 lung) | GI50 (SF-268 CNS) | TGI (SF-268 CNS) | GI50 (SW-620 colon) | TGI (SW-620 colon) | GI50 (TK-10 renal) | TGI (TK-10 renal) | GI50 (SK-MEL-28 melanoma) | TGI (SK-MEL-28 melanoma) | GI50 (SF-539 CNS) | TGI (SF-539 CNS) | GI50 (LOX IMVI melanoma) | TGI (LOX IMVI melanoma)
Nc1c(C(=O)Nc2ccncc2)sc2nc3c(cc12)CCCCCCCC3 | 0.948 µM | 2.19 µM | 0.9 µM | 1.63 µM | 0.819 µM | 1.53 µM | 0.995 µM | 1.83 µM | 0.954 µM | 1.74 µM | 0.957 µM | 1.88 µM | 1.17 µM | 1.98 µM | 0.916 µM | 1.65 µM | 0.878 µM | 1.6 µM | 0.845 µM | 1.56 µM
O=C1OCC2=C1C(c1cccc(Br)c1)c1cc3c(cc1N2CCO)CCC3 (centres undefined) | 0.0763 µM | 0.444 µM | 0.13 µM | 1.66 µM | 0.0607 µM | 9.41 µM | 0.101 µM | 5.19 µM | 0.109 µM | 6.47 µM | 0.0583 µM | 8.47 µM | 0.736 µM | 11.3 µM | 0.0564 µM | 10.3 µM | 0.0801 µM | 5.46 µM | 0.119 µM | 7.56 µM
O=c1ccn([C@H]2CSC[C@@H](CO)C2)c(=O)[nH]1 | – | > 100 µM | – | > 100 µM | – | > 100 µM | – | > 100 µM | – | > 100 µM | – | > 100 µM | – | > 100 µM | – | > 100 µM | – | > 100 µM | – | > 100 µM
C1CN2CCN3CCN4CCN1[P+]243 | – | > 100 µM | – | > 100 µM | – | > 100 µM | – | > 100 µM | – | – | – | > 100 µM | – | > 100 µM | – | > 100 µM | – | > 100 µM | – | > 100 µM
